{"source": "the NIST ThermoML archive (doi:10.1021/acs.jced.9b00507)", "assay": "xn = mol fraction of the nth substance listed", "conditions": "100 kPa, Liquid; for viscosity: Concentric cylinders viscometry; for mass density: Vibrating tube method", "note": "± gives the expanded uncertainty stated by the source."}
{"compound": "CCCCCCn1cc[n+](C)c1.O=[N+]([O-])[O-]", "note": "[1-hexyl-3-methylimidazolium nitrate] + CCCCCCO", "values": [{"measurement": "viscosity", "setting": "293.15 K, x1 = 0.0816", "result": "12.97 ± 1.1", "unit": "mPa·s"}, {"measurement": "viscosity", "setting": "293.15 K, x1 = 0.1604", "result": "24.15 ± 2", "unit": "mPa·s"}, {"measurement": "viscosity", "setting": "293.15 K, x1 = 0.2391", "result": "39.81 ± 3.2", "unit": "mPa·s"}, {"measurement": "viscosity", "setting": "293.15 K, x1 = 0.3502", "result": "76.74 ± 6.2", "unit": "mPa·s"}, {"measurement": "viscosity", "setting": "293.15 K, x1 = 0.4409", "result": "123.03 ± 10", "unit": "mPa·s"}, {"measurement": "viscosity", "setting": "293.15 K, x1 = 0.5592", "result": "207.01 ± 17", "unit": "mPa·s"}, {"measurement": "viscosity", "setting": "293.15 K, x1 = 0.6508", "result": "296.48 ± 25", "unit": "mPa·s"}, {"measurement": "viscosity", "setting": "293.15 K, x1 = 0.7395", "result": "414.95 ± 35", "unit": "mPa·s"}, {"measurement": "viscosity", "setting": "293.15 K, x1 = 0.8502", "result": "581.11 ± 50", "unit": "mPa·s"}, {"measurement": "viscosity", "setting": "293.15 K, x1 = 0.9391", "result": "707.52 ± 62", "unit": "mPa·s"}, {"measurement": "viscosity", "setting": "293.15 K, x1 = 1", "result": "804.17 ± 70", "unit": "mPa·s"}, {"measurement": "mass density", "setting": "293.15 K, x1 = 0.0816", "result": "859 ± 1.3", "unit": "kg/m3"}, {"measurement": "mass density", "setting": "293.15 K, x1 = 0.1604", "result": "894.1 ± 1.3", "unit": "kg/m3"}, {"measurement": "mass density", "setting": "293.15 K, x1 = 0.2391", "result": "925.7 ± 1.3", "unit": "kg/m3"}, {"measurement": "mass density", "setting": "293.15 K, x1 = 0.3502", "result": "965.4 ± 1.2", "unit": "kg/m3"}, {"measurement": "mass density", "setting": "293.15 K, x1 = 0.4409", "result": "994.2 ± 1.2", "unit": "kg/m3"}, {"measurement": "mass density", "setting": "293.15 K, x1 = 0.5592", "result": "1027.7 ± 1.2", "unit": "kg/m3"}, {"measurement": "mass density", "setting": "293.15 K, x1 = 0.6508", "result": "1050.9 ± 1.2", "unit": "kg/m3"}, {"measurement": "mass density", "setting": "293.15 K, x1 = 0.7395", "result": "1071.2 ± 1.2", "unit": "kg/m3"}, {"measurement": "mass density", "setting": "293.15 K, x1 = 0.8502", "result": "1093.7 ± 1.3", "unit": "kg/m3"}, {"measurement": "mass density", "setting": "293.15 K, x1 = 0.9391", "result": "1110 ± 1.4", "unit": "kg/m3"}, {"measurement": "mass density", "setting": "293.15 K, x1 = 1", "result": "1120.3 ± 1.4", "unit": "kg/m3"}, {"measurement": "viscosity", "setting": "298.15 K, x1 = 0.0816", "result": "8.79 ± 0.72", "unit": "mPa·s"}, {"measurement": "viscosity", "setting": "298.15 K, x1 = 0.1604", "result": "14.35 ± 1.2", "unit": "mPa·s"}, {"measurement": "viscosity", "setting": "298.15 K, x1 = 0.2391", "result": "22.49 ± 1.8", "unit": "mPa·s"}, {"measurement": "viscosity", "setting": "298.15 K, x1 = 0.3502", "result": "39.81 ± 3.2", "unit": "mPa·s"}, {"measurement": "viscosity", "setting": "298.15 K, x1 = 0.4409", "result": "63.83 ± 5.2", "unit": "mPa·s"}, {"measurement": "viscosity", "setting": "298.15 K, x1 = 0.5592", "result": "109.9 ± 9", "unit": "mPa·s"}, {"measurement": "viscosity", "setting": "298.15 K, x1 = 0.6508", "result": "167.11 ± 14", "unit": "mPa·s"}, {"measurement": "viscosity", "setting": "298.15 K, x1 = 0.7395", "result": "243.78 ± 20", "unit": "mPa·s"}, {"measurement": "viscosity", "setting": "298.15 K, x1 = 0.8502", "result": "367.28 ± 31", "unit": "mPa·s"}, {"measurement": "viscosity", "setting": "298.15 K, x1 = 0.9391", "result": "473.22 ± 40", "unit": "mPa·s"}, {"measurement": "viscosity", "setting": "298.15 K, x1 = 1", "result": "545.25 ± 47", "unit": "mPa·s"}, {"measurement": "mass density", "setting": "298.15 K, x1 = 0.0816", "result": "855.2 ± 1.3", "unit": "kg/m3"}, {"measurement": "mass density", "setting": "298.15 K, x1 = 0.1604", "result": "890.1 ± 1.3", "unit": "kg/m3"}, {"measurement": "mass density", "setting": "298.15 K, x1 = 0.2391", "result": "921.7 ± 1.3", "unit": "kg/m3"}, {"measurement": "mass density", "setting": "298.15 K, x1 = 0.3502", "result": "961.4 ± 1.2", "unit": "kg/m3"}, {"measurement": "mass density", "setting": "298.15 K, x1 = 0.4409", "result": "990.2 ± 1.2", "unit": "kg/m3"}, {"measurement": "mass density", "setting": "298.15 K, x1 = 0.5592", "result": "1023.9 ± 1.2", "unit": "kg/m3"}, {"measurement": "mass density", "setting": "298.15 K, x1 = 0.6508", "result": "1047.2 ± 1.2", "unit": "kg/m3"}, {"measurement": "mass density", "setting": "298.15 K, x1 = 0.7395", "result": "1067.7 ± 1.2", "unit": "kg/m3"}, {"measurement": "mass density", "setting": "298.15 K, x1 = 0.8502", "result": "1090.5 ± 1.3", "unit": "kg/m3"}, {"measurement": "mass density", "setting": "298.15 K, x1 = 0.9391", "result": "1107.1 ± 1.4", "unit": "kg/m3"}, {"measurement": "mass density", "setting": "298.15 K, x1 = 1", "result": "1117.5 ± 1.4", "unit": "kg/m3"}, {"measurement": "viscosity", "setting": "303.15 K, x1 = 0.0816", "result": "6.53 ± 0.53", "unit": "mPa·s"}, {"measurement": "viscosity", "setting": "303.15 K, x1 = 0.1604", "result": "10 ± 0.81", "unit": "mPa·s"}, {"measurement": "viscosity", "setting": "303.15 K, x1 = 0.2391", "result": "15.42 ± 1.2", "unit": "mPa·s"}, {"measurement": "viscosity", "setting": "303.15 K, x1 = 0.3502", "result": "26 ± 2.1", "unit": "mPa·s"}, {"measurement": "viscosity", "setting": "303.15 K, x1 = 0.4409", "result": "39.54 ± 3.2", "unit": "mPa·s"}, {"measurement": "viscosity", "setting": "303.15 K, x1 = 0.5592", "result": "66.53 ± 5.4", "unit": "mPa·s"}, {"measurement": "viscosity", "setting": "303.15 K, x1 = 0.6508", "result": "101.16 ± 8.2", "unit": "mPa·s"}, {"measurement": "viscosity", "setting": "303.15 K, x1 = 0.7395", "result": "149.28 ± 12", "unit": "mPa·s"}, {"measurement": "viscosity", "setting": "303.15 K, x1 = 0.8502", "result": "233.88 ± 19", "unit": "mPa·s"}, {"measurement": "viscosity", "setting": "303.15 K, x1 = 0.9391", "result": "315.5 ± 26", "unit": "mPa·s"}, {"measurement": "viscosity", "setting": "303.15 K, x1 = 1", "result": "369.14 ± 31", "unit": "mPa·s"}, {"measurement": "mass density", "setting": "303.15 K, x1 = 0.0816", "result": "851.5 ± 1.3", "unit": "kg/m3"}, {"measurement": "mass density", "setting": "303.15 K, x1 = 0.1604", "result": "886.2 ± 1.3", "unit": "kg/m3"}, {"measurement": "mass density", "setting": "303.15 K, x1 = 0.2391", "result": "917.6 ± 1.3", "unit": "kg/m3"}, {"measurement": "mass density", "setting": "303.15 K, x1 = 0.3502", "result": "957.2 ± 1.2", "unit": "kg/m3"}, {"measurement": "mass density", "setting": "303.15 K, x1 = 0.4409", "result": "986.1 ± 1.2", "unit": "kg/m3"}, {"measurement": "mass density", "setting": "303.15 K, x1 = 0.5592", "result": "1019.9 ± 1.2", "unit": "kg/m3"}, {"measurement": "mass density", "setting": "303.15 K, x1 = 0.6508", "result": "1043.3 ± 1.2", "unit": "kg/m3"}, {"measurement": "mass density", "setting": "303.15 K, x1 = 0.7395", "result": "1063.9 ± 1.2", "unit": "kg/m3"}, {"measurement": "mass density", "setting": "303.15 K, x1 = 0.8502", "result": "1087 ± 1.3", "unit": "kg/m3"}, {"measurement": "mass density", "setting": "303.15 K, x1 = 0.9391", "result": "1103.7 ± 1.4", "unit": "kg/m3"}, {"measurement": "mass density", "setting": "303.15 K, x1 = 1", "result": "1114.3 ± 1.4", "unit": "kg/m3"}, {"measurement": "viscosity", "setting": "308.15 K, x1 = 0.0816", "result": "5.01 ± 0.4", "unit": "mPa·s"}, {"measurement": "viscosity", "setting": "308.15 K, x1 = 0.1604", "result": "6.95 ± 0.56", "unit": "mPa·s"}, {"measurement": "viscosity", "setting": "308.15 K, x1 = 0.2391", "result": "9.64 ± 0.78", "unit": "mPa·s"}, {"measurement": "viscosity", "setting": "308.15 K, x1 = 0.3502", "result": "15.85 ± 1.3", "unit": "mPa·s"}, {"measurement": "viscosity", "setting": "308.15 K, x1 = 0.4409", "result": "23.71 ± 1.9", "unit": "mPa·s"}, {"measurement": "viscosity", "setting": "308.15 K, x1 = 0.5592", "result": "40.36 ± 3.3", "unit": "mPa·s"}, {"measurement": "viscosity", "setting": "308.15 K, x1 = 0.6508", "result": "63.1 ± 5.1", "unit": "mPa·s"}, {"measurement": "viscosity", "setting": "308.15 K, x1 = 0.7395", "result": "95.67 ± 7.8", "unit": "mPa·s"}, {"measurement": "viscosity", "setting": "308.15 K, x1 = 0.8502", "result": "157.61 ± 13", "unit": "mPa·s"}, {"measurement": "viscosity", "setting": "308.15 K, x1 = 0.9391", "result": "216.41 ± 18", "unit": "mPa·s"}, {"measurement": "viscosity", "setting": "308.15 K, x1 = 1", "result": "257.59 ± 21", "unit": "mPa·s"}]}
